This passage reports IC50, EC50 and AC50 results from ChEMBL document CHEMBL1201862, “PubChem BioAssay data set” (2004).

The structures appear in SMILES notation. Active and inactive are the calls of the source. A value given as a limit tells only on which side of the number the result lay.

For experiment [1], the target named is Intestinal-type alkaline phosphatase (Mus musculus, UniProt P24822). The experiment in a line: PubChem AID 488785. It counts as functional.
Experiment [2] concerns the target Nonstructural protein 1 (Influenza A virus, UniProt Q194T2). It counts as functional, Influenza A virus (A/California/07/2009(H1N1)).
Experiment [3] deals with Intestinal-type alkaline phosphatase (Homo sapiens, UniProt P09923). The experiment in a line: inhibition of human intestinal alkaline phosphatase – biochemical, dose response (AID 488876). The format is functional.
The target in experiment [4] is T1, Alkaline phosphatase, tissue-nonspecific isozyme (Homo sapiens, UniProt P05186).
T1 sequence (P05186 whole entry): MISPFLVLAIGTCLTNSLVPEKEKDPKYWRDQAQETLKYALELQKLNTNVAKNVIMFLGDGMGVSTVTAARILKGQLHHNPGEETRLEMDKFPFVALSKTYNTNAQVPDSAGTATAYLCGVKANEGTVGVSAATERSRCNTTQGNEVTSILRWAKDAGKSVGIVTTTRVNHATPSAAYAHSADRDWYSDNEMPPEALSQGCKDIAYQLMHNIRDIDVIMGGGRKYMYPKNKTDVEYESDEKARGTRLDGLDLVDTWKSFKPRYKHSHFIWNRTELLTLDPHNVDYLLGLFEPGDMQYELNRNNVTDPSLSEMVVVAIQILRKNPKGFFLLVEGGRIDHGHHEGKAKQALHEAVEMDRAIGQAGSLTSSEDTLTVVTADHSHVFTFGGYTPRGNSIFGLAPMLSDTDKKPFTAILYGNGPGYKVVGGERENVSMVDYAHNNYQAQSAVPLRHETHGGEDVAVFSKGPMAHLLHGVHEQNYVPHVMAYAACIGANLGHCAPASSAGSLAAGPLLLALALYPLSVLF
The experiment in a line: TNAP enzyme inhibition by screening hits, dose response, selectivity assay for mouse IAP inhibitor project, biochemical, human TNAP, uHTS hits (AID 488906). It counts as functional.

A short description of experiment [5]: Counterscreen for AddAB inhibitors: absorbance-based bacterial cell-based high throughput dose response assay for inhibitors of bacterial viability. [Related pubchem assays (depositor defined):AID435030, AID449728, AID449731, AID488942, AID488955, AID488956]. It counts as functional. (The purpose of a counterscreen is to sort out artefacts and off-target activity.)

The target of experiment [6] is Exodeoxyribonuclease V (Escherichia coli (strain K12), UniProt P04993+P07648+P08394). The experiment in a line: RecBCD inhibition via phage-restricted bacterial growth – absorbance, V66 E. coli, mutant T4 phage, counter-screen for AddAB inhibitor project, dose response (AID 492957). It counts as functional, cell-based, Escherichia coli str. K-12 substr. MG1655.
The target in experiment [7] is T2, High affinity choline transporter 1 (Homo sapiens, UniProt Q9GZV3).
T2 sequence (Q9GZV3 whole entry): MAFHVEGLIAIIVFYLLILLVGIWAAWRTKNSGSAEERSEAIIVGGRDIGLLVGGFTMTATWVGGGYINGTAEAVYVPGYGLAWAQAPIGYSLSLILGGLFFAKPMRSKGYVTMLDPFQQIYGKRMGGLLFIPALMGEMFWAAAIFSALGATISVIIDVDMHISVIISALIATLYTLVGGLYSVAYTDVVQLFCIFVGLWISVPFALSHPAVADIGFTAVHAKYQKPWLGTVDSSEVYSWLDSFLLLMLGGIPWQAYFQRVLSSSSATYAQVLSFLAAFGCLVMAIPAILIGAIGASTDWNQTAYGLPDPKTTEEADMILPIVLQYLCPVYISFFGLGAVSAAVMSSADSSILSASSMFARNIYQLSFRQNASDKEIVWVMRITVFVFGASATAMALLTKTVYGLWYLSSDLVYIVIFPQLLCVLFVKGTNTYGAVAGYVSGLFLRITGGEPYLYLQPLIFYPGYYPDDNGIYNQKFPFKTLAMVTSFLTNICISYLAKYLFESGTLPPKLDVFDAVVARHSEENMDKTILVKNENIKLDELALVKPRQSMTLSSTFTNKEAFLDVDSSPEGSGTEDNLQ
The experiment in a line: human choline transporter blockers, potency – cell-based, 5-point CRC, membrane potential dye, dose response (AID 504840). It counts as functional.

Experiment [8] deals with T3, Nucleotide-binding oligomerization domain-containing protein 1 (Homo sapiens, UniProt Q9Y239).
T3 sequence (Q9Y239 whole entry): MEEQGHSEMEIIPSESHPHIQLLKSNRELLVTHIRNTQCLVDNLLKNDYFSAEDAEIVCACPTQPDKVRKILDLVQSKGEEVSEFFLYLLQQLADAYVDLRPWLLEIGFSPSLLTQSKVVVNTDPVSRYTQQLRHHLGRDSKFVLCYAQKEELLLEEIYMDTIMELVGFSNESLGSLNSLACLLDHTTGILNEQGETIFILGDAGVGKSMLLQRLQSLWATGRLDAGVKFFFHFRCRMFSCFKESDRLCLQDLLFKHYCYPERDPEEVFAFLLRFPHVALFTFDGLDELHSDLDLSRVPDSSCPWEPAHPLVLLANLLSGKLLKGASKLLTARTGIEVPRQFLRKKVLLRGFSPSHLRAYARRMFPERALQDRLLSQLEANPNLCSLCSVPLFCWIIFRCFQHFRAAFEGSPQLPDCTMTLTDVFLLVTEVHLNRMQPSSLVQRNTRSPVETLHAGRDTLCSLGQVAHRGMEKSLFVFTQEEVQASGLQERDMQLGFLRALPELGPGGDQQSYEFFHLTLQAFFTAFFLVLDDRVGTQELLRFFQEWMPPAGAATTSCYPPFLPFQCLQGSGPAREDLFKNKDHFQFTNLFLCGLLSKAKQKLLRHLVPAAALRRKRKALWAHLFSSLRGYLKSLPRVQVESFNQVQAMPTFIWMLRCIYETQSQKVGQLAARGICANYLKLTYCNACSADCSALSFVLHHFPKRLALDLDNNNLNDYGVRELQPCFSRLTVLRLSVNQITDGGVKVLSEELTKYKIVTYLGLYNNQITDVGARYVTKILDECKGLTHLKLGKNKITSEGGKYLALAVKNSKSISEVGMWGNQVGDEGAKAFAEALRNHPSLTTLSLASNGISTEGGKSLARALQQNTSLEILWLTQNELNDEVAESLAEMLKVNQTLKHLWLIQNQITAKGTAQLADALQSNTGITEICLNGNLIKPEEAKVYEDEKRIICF
The experiment in a line: blockers of NOD1 pathway activity – revised, SAR follow-up (AID 2333). The format is functional.

Experiment [9] concerns the target Tumor necrosis factor (Homo sapiens, UniProt P01375). The experiment in a line: analog potency on TNFa NF-kB signaling – cell-based, revised, SAR follow-up (AID 2337). The format is functional.
For experiment [10], the system named is HEK293. Kind of experiment: cells. The following applies: Homo sapiens.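 Further: cells exposed to compound for 14 hours overnight before viability readout.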
For experiment [11], the system named is Streptococcus sp. 'group A'. The experiment in a line: Streptococcus pyogenes SK(-)GAS viability under kanamycin – luminescence, BacTiterGlo, confirmation, counter-screen for streptokinase expression inhibitor project, dose response (AID 1900). It counts as functional, organism-based.
Experiment [12] relates to Streptococcus. The experiment in a line: GAS UMAA2166 growth inhibition – luminescence, BacTiterGlo, counter-screen for streptokinase expression inhibitor project, dose response (AID 1915).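 Further: potency for reduction of bacterial viability or growth.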 It counts as functional, organism-based.
Experiment [13] can be described thus: Luminescence Cell-Based Dose Retest to Confirm Inhibitors of Cancer Stem Cells. [Related pubchem assays (depositor defined):AID2717, AID2721]. The format is functional. The following applies: Homo sapiens.
Experiment [14] has as its target T4, Streptokinase A (Streptococcus pyogenes serotype M1, UniProt P10520).
T4 sequence (P10520 whole entry): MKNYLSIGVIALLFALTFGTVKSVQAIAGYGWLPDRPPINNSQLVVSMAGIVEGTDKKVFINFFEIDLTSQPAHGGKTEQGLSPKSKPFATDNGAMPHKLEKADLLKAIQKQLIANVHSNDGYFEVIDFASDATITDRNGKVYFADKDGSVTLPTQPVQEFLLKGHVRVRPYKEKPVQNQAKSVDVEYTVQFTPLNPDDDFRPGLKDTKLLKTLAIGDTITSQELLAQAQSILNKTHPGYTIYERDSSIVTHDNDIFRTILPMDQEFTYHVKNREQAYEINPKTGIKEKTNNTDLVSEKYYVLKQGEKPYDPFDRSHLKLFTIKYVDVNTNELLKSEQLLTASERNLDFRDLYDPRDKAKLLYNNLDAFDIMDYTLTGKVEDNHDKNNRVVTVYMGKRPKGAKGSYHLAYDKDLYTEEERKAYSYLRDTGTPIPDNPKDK
Kind of experiment: viability-normalized secreted streptokinase activity reduction – plasminogen activation absorbance, OD405, dose response (AID 1914).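 Further: secreted streptokinase activity via plasminogen activation per viability signal from cell pellet.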 The format is functional, Streptococcus pyogenes M1 GAS.

In experiment [15] the target is T5, Coagulation factor XII (Homo sapiens, UniProt P00748).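 Further: activated factor XIIa alpha cleaving a fluorogenic AMC peptide substrate; inhibitor potency from loss of enzyme activity.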
T5 sequence (P00748 whole entry): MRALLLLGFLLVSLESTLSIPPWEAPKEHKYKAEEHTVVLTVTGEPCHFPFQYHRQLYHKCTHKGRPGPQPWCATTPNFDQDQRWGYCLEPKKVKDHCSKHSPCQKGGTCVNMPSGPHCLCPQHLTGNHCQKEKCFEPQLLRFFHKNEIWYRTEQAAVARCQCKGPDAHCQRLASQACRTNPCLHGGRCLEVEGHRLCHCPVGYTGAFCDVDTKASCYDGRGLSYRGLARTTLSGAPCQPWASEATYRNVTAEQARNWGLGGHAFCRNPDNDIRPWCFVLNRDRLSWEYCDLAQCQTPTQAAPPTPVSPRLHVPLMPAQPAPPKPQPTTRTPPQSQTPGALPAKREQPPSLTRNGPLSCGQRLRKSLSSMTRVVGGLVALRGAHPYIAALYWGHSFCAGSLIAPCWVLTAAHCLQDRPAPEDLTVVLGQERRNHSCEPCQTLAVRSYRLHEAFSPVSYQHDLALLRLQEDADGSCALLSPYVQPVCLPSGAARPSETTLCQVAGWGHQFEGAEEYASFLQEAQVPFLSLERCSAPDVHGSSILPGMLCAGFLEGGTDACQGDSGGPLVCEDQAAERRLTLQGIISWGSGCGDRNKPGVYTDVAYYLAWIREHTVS
It counts as functional.

Experiment [16] concerns the target T6, Estrogen receptor (Homo sapiens, UniProt P03372).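 Further: potency for inhibiting coactivator peptide recruitment to the receptor.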
T6 sequence (P03372 whole entry): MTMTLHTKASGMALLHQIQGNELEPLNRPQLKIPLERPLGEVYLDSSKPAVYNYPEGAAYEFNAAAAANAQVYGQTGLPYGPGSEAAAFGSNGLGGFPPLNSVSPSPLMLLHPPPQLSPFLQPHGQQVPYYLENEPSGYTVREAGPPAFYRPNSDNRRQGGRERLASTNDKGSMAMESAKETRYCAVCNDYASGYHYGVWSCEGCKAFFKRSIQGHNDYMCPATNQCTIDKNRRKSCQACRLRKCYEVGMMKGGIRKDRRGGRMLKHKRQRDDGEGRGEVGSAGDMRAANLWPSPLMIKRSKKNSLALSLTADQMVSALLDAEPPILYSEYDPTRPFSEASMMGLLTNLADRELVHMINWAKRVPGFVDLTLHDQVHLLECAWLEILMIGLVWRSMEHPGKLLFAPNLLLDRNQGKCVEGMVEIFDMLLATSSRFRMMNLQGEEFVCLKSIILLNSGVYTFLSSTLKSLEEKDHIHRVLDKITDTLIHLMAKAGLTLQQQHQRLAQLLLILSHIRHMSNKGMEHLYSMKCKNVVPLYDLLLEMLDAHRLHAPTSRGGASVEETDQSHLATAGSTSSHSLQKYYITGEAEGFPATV

Broadly, the IC50 is the concentration that inhibits the measured activity by half. Broadly, the EC50 is the concentration needed to bring the measured effect to its halfway point. For orientation: AC50 means the midpoint of the concentration-response curve, whichever way the signal moves.
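Wherever AC50 is given: cells exposed to compound for roughly 70 hours or longer before luminescence read.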

Chain of Intestinal-type alkaline phosphatase (Mus musculus, UniProt P24822) (P24822 whole entry): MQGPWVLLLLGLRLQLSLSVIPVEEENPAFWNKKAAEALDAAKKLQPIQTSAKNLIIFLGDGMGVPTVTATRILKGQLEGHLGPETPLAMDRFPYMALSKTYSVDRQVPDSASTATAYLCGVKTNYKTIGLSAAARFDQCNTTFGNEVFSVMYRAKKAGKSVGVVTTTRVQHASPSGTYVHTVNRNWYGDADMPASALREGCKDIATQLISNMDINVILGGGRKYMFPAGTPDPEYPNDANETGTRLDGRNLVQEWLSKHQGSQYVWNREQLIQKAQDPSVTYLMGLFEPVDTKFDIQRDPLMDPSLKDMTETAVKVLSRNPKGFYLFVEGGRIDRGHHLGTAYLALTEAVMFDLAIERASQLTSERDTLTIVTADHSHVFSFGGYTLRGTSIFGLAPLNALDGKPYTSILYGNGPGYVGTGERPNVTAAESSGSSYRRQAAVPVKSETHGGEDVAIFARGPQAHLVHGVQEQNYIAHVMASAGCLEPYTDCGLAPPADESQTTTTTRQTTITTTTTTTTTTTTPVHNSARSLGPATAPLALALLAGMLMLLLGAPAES
Chain of Intestinal-type alkaline phosphatase (Homo sapiens, UniProt P09923) (P09923 whole entry): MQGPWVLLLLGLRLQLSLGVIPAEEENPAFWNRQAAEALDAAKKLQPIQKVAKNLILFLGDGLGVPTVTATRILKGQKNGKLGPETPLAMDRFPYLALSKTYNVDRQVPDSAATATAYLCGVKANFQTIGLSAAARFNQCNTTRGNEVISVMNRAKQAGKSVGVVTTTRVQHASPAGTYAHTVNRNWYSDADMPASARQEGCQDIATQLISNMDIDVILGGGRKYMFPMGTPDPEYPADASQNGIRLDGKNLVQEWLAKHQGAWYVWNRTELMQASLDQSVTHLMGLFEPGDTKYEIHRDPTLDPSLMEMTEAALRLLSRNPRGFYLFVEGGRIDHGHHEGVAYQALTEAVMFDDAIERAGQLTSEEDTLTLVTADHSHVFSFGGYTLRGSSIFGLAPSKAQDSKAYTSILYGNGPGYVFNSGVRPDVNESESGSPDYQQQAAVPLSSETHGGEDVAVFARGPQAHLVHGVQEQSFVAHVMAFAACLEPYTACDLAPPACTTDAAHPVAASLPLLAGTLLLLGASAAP
Chain of Exodeoxyribonuclease V (P04993 whole entry): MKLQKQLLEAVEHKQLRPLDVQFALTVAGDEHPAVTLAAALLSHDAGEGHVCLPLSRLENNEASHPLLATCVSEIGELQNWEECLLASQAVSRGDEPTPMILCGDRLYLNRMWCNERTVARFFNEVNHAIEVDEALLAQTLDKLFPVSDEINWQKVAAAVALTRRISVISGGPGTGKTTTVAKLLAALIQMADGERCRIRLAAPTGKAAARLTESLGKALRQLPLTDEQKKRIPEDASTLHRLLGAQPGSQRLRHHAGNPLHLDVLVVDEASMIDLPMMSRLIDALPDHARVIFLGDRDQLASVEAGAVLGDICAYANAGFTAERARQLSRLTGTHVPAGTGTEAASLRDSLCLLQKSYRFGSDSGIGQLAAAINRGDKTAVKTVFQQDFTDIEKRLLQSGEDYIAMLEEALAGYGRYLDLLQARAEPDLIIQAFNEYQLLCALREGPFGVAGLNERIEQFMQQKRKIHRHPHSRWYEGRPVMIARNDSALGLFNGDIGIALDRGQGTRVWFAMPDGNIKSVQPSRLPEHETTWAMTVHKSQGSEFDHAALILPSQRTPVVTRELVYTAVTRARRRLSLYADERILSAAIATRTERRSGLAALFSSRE
Chain of Exodeoxyribonuclease V (P07648 whole entry): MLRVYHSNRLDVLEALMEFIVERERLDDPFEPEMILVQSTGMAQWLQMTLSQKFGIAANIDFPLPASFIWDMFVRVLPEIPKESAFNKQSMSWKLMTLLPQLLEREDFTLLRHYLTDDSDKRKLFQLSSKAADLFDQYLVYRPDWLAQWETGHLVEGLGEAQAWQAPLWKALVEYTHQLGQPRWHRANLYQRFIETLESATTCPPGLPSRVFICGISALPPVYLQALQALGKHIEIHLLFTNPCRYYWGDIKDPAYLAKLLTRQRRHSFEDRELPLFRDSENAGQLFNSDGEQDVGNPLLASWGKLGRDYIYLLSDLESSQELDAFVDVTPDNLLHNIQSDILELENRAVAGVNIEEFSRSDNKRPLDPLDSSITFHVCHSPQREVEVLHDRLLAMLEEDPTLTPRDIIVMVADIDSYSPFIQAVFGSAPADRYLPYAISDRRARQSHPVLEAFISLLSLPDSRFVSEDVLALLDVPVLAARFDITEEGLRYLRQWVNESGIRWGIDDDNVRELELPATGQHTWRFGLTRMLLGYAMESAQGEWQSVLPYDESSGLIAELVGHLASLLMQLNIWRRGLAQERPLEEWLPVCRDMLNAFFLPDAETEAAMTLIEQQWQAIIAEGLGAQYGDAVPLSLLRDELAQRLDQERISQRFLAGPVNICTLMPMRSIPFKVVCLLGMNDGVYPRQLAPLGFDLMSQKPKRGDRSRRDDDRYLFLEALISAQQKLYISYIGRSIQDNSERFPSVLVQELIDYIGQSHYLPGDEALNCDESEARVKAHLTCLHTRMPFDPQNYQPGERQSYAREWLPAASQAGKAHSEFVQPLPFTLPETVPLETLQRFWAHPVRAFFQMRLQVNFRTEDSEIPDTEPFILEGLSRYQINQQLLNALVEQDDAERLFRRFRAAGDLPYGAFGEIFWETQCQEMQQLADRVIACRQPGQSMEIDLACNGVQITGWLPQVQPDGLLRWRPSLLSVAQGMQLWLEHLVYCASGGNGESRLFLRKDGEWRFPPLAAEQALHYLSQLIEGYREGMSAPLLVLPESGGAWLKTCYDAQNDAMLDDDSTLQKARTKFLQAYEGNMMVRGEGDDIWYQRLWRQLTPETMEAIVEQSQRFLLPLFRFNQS
Chain of Exodeoxyribonuclease V (P08394 whole entry): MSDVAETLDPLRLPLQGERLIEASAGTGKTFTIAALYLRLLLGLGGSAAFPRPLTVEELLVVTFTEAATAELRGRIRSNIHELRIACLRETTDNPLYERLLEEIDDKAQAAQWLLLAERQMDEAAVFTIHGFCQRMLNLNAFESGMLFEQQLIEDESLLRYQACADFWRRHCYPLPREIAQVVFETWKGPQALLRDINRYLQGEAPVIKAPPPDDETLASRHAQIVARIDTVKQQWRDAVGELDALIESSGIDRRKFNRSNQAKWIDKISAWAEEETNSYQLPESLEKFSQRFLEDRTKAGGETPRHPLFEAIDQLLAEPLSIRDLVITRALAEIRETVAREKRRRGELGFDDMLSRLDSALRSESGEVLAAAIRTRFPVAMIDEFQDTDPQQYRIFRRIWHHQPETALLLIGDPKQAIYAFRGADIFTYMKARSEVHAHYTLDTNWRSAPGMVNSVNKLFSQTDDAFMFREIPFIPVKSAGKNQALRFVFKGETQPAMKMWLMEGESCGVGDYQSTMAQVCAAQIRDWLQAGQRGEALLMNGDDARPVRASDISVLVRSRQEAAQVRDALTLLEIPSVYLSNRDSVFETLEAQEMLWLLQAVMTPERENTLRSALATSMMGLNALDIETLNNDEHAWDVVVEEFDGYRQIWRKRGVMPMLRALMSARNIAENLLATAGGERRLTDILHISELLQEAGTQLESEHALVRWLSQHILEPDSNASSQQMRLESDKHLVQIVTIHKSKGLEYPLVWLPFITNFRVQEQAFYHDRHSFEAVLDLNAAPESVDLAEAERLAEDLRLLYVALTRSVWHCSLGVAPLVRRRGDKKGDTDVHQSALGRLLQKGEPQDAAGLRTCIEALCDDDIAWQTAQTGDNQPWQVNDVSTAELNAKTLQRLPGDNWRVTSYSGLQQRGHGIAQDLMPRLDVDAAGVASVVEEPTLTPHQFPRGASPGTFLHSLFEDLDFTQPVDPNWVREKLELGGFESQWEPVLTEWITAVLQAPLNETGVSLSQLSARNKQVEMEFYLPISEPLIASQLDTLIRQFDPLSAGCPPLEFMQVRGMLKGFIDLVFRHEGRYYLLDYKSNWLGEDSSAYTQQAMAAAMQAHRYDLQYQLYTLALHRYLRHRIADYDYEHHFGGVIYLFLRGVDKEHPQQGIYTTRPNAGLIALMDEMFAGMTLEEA
Chain of Tumor necrosis factor (P01375 whole entry): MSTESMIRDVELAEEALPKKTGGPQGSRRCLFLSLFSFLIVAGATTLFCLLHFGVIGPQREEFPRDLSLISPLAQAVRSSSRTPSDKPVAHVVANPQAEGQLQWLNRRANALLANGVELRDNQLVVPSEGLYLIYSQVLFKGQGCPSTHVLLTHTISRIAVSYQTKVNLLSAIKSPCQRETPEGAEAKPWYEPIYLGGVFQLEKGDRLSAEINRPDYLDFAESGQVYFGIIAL
Chain of Nonstructural protein 1 (Q194T2 whole entry): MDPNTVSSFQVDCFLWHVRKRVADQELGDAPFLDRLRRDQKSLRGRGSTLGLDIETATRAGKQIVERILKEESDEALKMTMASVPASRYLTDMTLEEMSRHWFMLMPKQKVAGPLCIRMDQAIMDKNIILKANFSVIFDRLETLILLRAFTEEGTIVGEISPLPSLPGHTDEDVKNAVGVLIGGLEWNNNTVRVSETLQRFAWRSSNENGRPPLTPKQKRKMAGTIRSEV

With `COCc1ccc(CN2CCC(C(=O)Nc3cccc(-c4cccc(Cl)c4)c3)CC2)o1`, the IC50 in experiment [1] was 2.01 µM (active); in experiment [2] it was > 100 µM (active); in experiment [3], > 100 µM (inactive); in [4], 17.8 µM (active).
Regarding `CCOc1ccc(NC(S)=NCc2nc3ccccc3[nH]2)cc1`, the IC50 in [5] and in experiment [6] was > 119 µM (inactive) in each case.
For the molecule `CN(CCNC(=O)CN1CCN(Cc2ccccc2Cl)C1=O)Cc1ccccc1`, the half-inhibitory concentration (IC50) in [7] was 15.9 µM (active).
Consider `C/C(=N\N=C(N)N)c1ccc(Cl)c(Cl)c1`, for which, in experiment [7], the IC50 was 13.8 µM (active).
With `CCCCOc1ccc(Cc2cnc(N)nc2N)cc1`, the values for the IC50 in experiment [5] and in experiment [6] were 85.2 µM (inactive) and 114 µM (inactive), respectively.
For `Cc1ccc(-c2nc3ccccc3s2)cc1`, the IC50 in experiment [8], in experiment [9] and in [10] was > 20 µM (inactive) in each case.
Consider `S=C(NCCC(c1ccccc1)c1ccccc1)Nc1cccc(Cl)c1`, for which the IC50 in experiment [1] is 6.96 µM (active); in experiment [3], 57.7 µM (active); in experiment [4], 22.9 µM (active). Further, the EC50 in [11] was 3.81 µM (active); in experiment [12] it was 10.5 µM (active); in experiment [14], 15.3 µM (active). Besides, the AC50 in experiment [13] is 2.27 µM (active).
For the molecule `COc1cc(COCC(O)CN2CCOCC2)cc(OC)c1OC` (stereo not drawn), the IC50 in [15] was > 50 µM (inactive).
`Cc1ccc(-c2nnc3n2N=C(c2ccc(Br)cc2)CS3)cc1`: the figures for the IC50 in experiment [16] and in experiment [15] were 42.3 µM (not active) and > 50 µM (inactive), respectively.
